Test results from patent US20210122730A1, “GLUCOCORTICOID RECEPTOR MODULATORS” (ORIC Pharmaceuticals, Inc., priority 2017, published 2021).

molecular target: T1, GR (Homo sapiens, UniProt P04150); test: In Vitro GR Luciferase Reporter Assay (antagonist mode, CHO-K1-GR-MMTV-Luc reporter cells); type: cell-based; settings: antagonist mode, 10 nM Dexamethasone
T1 construct: expressed in transfected cells; host or cells: CHO-K1
T1 sequence (P04150 1-777): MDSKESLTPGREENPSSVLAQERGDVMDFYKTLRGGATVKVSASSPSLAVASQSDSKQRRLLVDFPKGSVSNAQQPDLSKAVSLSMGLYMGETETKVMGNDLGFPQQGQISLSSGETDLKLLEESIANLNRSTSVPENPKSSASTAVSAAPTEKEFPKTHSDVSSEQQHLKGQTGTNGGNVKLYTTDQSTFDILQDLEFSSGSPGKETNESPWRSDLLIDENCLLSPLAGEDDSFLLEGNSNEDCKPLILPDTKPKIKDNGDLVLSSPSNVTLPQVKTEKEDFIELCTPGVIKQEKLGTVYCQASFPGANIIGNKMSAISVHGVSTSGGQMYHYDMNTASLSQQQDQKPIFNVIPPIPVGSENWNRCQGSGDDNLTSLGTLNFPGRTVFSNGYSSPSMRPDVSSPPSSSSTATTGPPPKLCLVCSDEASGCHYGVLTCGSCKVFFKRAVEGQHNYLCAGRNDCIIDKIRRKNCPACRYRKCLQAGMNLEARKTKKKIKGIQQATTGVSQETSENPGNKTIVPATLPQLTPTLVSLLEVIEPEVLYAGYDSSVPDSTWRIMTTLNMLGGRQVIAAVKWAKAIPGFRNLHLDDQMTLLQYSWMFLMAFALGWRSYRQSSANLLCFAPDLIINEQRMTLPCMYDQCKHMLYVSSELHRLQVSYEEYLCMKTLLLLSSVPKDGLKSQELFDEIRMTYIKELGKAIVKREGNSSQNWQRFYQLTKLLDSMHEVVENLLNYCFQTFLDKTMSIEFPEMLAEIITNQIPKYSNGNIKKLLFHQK
How it was run: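 Antagonist mode: compounds (8 serial 1:5 dilutions) added to GR-MMTV-luciferase CHO-K1 reporter cells co-exposed to 10 nM dexamethasone final, in phenol red-free DMEM plus 10% CSS. After roughly 18-24 h at 37° C, OneGlo luminescence read and IC50 calculated.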

SMILES	IC50 [µM]
CC(C)N([C@H]1CCC2=Cc3c(cnn3-c3ccc(F)cc3)C[C@]2(C(=O)c2cc(Cl)ccn2)C1)S(=O)(=O)c1ccc(Cl)nc1 [Example 323, 6-chloro-N-((4aS,6S)-4a-(4-chloropicolinoyl)-1-(4-fluorophenyl)-4,4a,5,6,7,8-hexahydro-1H-benzo[f]indazol-6-yl)-N-isopropylpyridine-3-sulfonamide]	≤ 0.1
Cc1nc(S(=O)(=O)N(C2CC2)[C@H]2CCC3=Cc4c(cnn4-c4ccc(F)cc4)C[C@]3(C(=O)c3ncc(C(F)(F)F)s3)C2)cn1C [Example 336, N-cyclopropyl-N-((4aS,6S)-1-(4-fluorophenyl)-4a-(5-(trifluoromethyl)thiazole-2-carbonyl)-4,4a,5,6,7,8-hexahydro-1H-benzo[f]indazol-6-yl)-1,2-dimethyl-1H-imidazole-4-sulfonamide]	≤ 0.1
Cn1cc(S(=O)(=O)CC2CCC3=Cc4c(cnn4-c4ccc(F)cc4)C[C@]3(C(=O)c3ccc(C(F)(F)F)cn3)C2)cn1 (stereo partly drawn) [Example 340, ((4aR)-1-(4-fluorophenyl)-6-(((1-methyl-1H-pyrazol-4-yl)sulfonyl)methyl)-1,4,5,6,7,8-hexahydro-4aH-benzo[f]indazol-4a-yl)(5-(trifluoromethyl)pyridin-2-yl)methanone]	≤ 0.1
C[C@]1(O)C[C@@H](N([C@H]2CCC3=Cc4c(cnn4-c4ccc(F)cc4)C[C@]3(C(=O)c3cc(F)ccn3)C2)S(=O)(=O)c2ccc(F)cc2)C1 [Example 343, 4-fluoro-N-((4aS,6S)-1-(4-fluorophenyl)-4a-(4-fluoropicolinoyl)-4,4a,5,6,7,8-hexahydro-1H-benzo[f]indazol-6-yl)-N-((1s,3R)-3-hydroxy-3-methylcyclobutyl)benzenesulfon-amide]	≤ 0.1
Cn1ccc(S(=O)(=O)N(CC(F)F)[C@H]2CCC3=Cc4c(cnn4-c4ccc(F)cc4)C[C@]3(C(=O)c3cc(Cl)ccn3)C2)n1 [Example 345, N-((4aS,6S)-4a-(4-chloropicolinoyl)-1-(4-fluorophenyl)-4,4a,5,6,7,8-hexahydro-1H-benzo[f]indazol-6-yl)-N-(2,2-difluoroethyl)-1-methyl-1H-pyrazole-3-sulfonamide]	≤ 0.1
O=C(c1cc(F)ccn1)[C@]12Cc3cnn(-c4ccc(F)cc4)c3C=C1CC[C@H](N(CC(F)F)S(=O)(=O)c1ccc(Cl)nc1)C2 [Example 351, 6-chloro-N-(2,2-difluoroethyl)-N-((4aS,6S)-1-(4-fluorophenyl)-4a-(4-fluoropicolinoyl)-4,4a,5,6,7,8-hexahydro-1H-benzo[f]indazol-6-yl)pyridine-3-sulfonamide]	≤ 0.1
O=C(c1cc(Cl)ccn1)[C@]12Cc3cnn(-c4ccc(F)cc4)c3C=C1CC[C@H](N(CC(F)F)S(=O)(=O)c1ccc(Cl)nc1)C2 [Example 352, 6-chloro-N-((4aS,6S)-4a-(4-chloropicolinoyl)-1-(4-fluorophenyl)-4,4a,5,6,7,8-hexahydro-1H-benzo[f]indazol-6-yl)-N-(2,2-difluoroethyl)pyridine-3-sulfonamide]	≤ 0.1
Cn1ccc(S(=O)(=O)CC2CCC3=Cc4c(cnn4-c4ccc(F)cc4)C[C@]3(C(=O)c3cc(C(F)(F)F)ccn3)C2)n1 (stereo partly drawn) [Example 353, ((4aR)-1-(4-fluorophenyl)-6-(((1-methyl-1H-pyrazol-3-yl)sulfonyl)methyl)-1,4,5,6,7,8-hexahydro-4aH-benzo[f]indazol-4a-yl)(4-(trifluoromethyl)pyridin-2-yl)methanone]	≤ 0.1

Next, values leading:

IC50 [µM]	SMILES
≤ 0.1	Cn1cc(S(=O)(=O)N(CC2CC2)[C@H]2CCC3=Cc4c(cnn4-c4ccc(F)cc4)C[C@]3(C(=O)c3cc(F)ccn3)C2)nn1 [Example 297, N-(cyclopropylmethyl)-N-((4aS,6S)-1-(4-fluorophenyl)-4a-(4-fluoropicolinoyl)-4,4a,5,6,7,8-hexahydro-1H-benzo[f]indazol-6-yl)-1-methyl-1H-1,2,3-triazole-4-sulfonamide]
≤ 0.1	Cn1cc(S(=O)(=O)N(CC(C)(C)O)[C@H]2CCC3=Cc4c(cnn4-c4ccc(F)cc4)C[C@]3(C(=O)c3ncc(C(F)(F)F)s3)C2)nn1 [Example 301, N-((4aS,6S)-1-(4-fluorophenyl)-4a-(5-(trifluoromethyl)thiazole-2-carbonyl)-4,4a,5,6,7,8-hexahydro-1H-benzo[f]indazol-6-yl)-N-(2-hydroxy-2-methylpropyl)-1-methyl-1H-1,2,3-triazole-4-sulfonamide]
≤ 0.1	CC(C)(O)CN([C@H]1CCC2=Cc3c(cnn3-c3ccc(F)cc3)C[C@]2(C(=O)c2cc(C(F)(F)F)ccn2)C1)S(=O)(=O)c1ccc(Cl)nc1 [Example 302, 6-chloro-N-((4aS,6S)-1-(4-fluorophenyl)-4a-(4-(trifluoromethyl)picolinoyl)-4,4a,5,6,7,8-hexahydro-1H-benzo[f]indazol-6-yl)-N-(2-hydroxy-2-methylpropyl)pyridine-3-sulfonamide]
≤ 0.1	CC(C)(O)CN([C@H]1CCC2=Cc3c(cnn3-c3ccc(F)cc3)C[C@]2(C(=O)c2ncc(C(F)(F)F)s2)C1)S(=O)(=O)c1ccc(Cl)nc1 [Example 303, 6-chloro-N-((4aS,6S)-1-(4-fluorophenyl)-4a-(5-(trifluoromethyl)thiazole-2-carbonyl)-4,4a,5,6,7,8-hexahydro-1H-benzo[f]indazol-6-yl)-N-(2-hydroxy-2-methylpropyl)pyridine-3-sulfonamide]
≤ 0.1	CC(C)(O)CN([C@H]1CCC2=Cc3c(cnn3-c3ccc(F)cc3)C[C@]2(C(=O)c2cc(F)ccn2)C1)S(=O)(=O)c1ccc(Cl)nc1 [Example 304, 6-chloro-N-((4aS,6S)-1-(4-fluorophenyl)-4a-(4-fluoropicolinoyl)-4,4a,5,6,7,8-hexahydro-1H-benzo[f]indazol-6-yl)-N-(2-hydroxy-2-methylpropyl)pyridine-3-sulfonamide]
≤ 0.1	Cn1cc(S(=O)(=O)[C@H]2CCC3=Cc4c(cnn4-c4ccc(F)cc4)C[C@]3(C(=O)c3cc(F)ccn3)C2)cn1 [Example 314, ((4aS,6S)-1-(4-fluorophenyl)-6-((1-methyl-1H-pyrazol-4-yl)sulfonyl)-1,4,5,6,7,8-hexahydro-4aH-benzo[f]indazol-4a-yl)(4-fluoropyridin-2-yl)methanone]
≤ 0.1	Cn1cnc(S(=O)(=O)N(CC2CC2)[C@H]2CCC3=Cc4c(cnn4-c4ccc(F)cc4)C[C@]3(C(=O)c3cc(C(F)(F)F)ccn3)C2)n1 [Example 316, N-(cyclopropylmethyl)-N-((4aS,6S)-1-(4-fluorophenyl)-4a-(4-(trifluoromethyl)picolinoyl)-4,4a,5,6,7,8-hexahydro-1H-benzo[f]indazol-6-yl)-1-methyl-1H-1,2,4-triazole-3-sulfonamide]
≤ 0.1	Cn1cc(S(=O)(=O)[C@H]2CCC3=Cc4c(cnn4-c4ccc(F)cc4)C[C@]3(C(=O)c3cc(Cl)ccn3)C2)cn1 [Example 317, (4-chloropyridin-2-yl)((4aS,6S)-1-(4-fluorophenyl)-6-((1-methyl-1H-pyrazol-4-yl)sulfonyl)-1,4,5,6,7,8-hexahydro-4aH-benzo[f]indazol-4a-yl)methanone]
≤ 0.1	Cn1cc(S(=O)(=O)N(CC(F)(F)F)[C@H]2CCC3=Cc4c(cnn4-c4ccc(F)cc4)C[C@]3(C(=O)c3cc(C(F)(F)F)ccn3)C2)nn1 [Example 318, N-((4aS,6S)-1-(4-fluorophenyl)-4a-(4-(trifluoromethyl)picolinoyl)-4,4a,5,6,7,8-hexahydro-1H-benzo[f]indazol-6-yl)-1-methyl-N-(2,2,2-trifluoroethyl)-1H-1,2,3-triazole-4-sulfonamide]
